This note sets out measurements from patent US7799796B2, “Diaminopyrimidines as P2X3 and P2X2/3 modulators” (Roche Palo Alto LLC, priority 2005, dated 2010).

In one experiment the target is T1, human P2X2/3 receptor (Homo sapiens, UniProt P56373+Q9UBL9).
T1 construct: expressed in transfected cells; host or cells: CHO-K1
T1 sequence (P56373 1-397): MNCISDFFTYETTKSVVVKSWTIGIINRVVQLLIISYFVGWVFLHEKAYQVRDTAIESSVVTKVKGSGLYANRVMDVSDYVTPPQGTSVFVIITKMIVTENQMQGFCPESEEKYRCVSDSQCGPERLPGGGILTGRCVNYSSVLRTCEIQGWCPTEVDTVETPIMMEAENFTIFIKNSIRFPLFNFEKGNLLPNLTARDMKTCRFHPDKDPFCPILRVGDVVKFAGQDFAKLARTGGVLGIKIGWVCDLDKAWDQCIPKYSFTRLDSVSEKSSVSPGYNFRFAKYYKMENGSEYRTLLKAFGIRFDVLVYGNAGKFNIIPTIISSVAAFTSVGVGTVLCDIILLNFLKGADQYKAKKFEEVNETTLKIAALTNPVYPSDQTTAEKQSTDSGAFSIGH
T1 sequence (Q9UBL9 1-471): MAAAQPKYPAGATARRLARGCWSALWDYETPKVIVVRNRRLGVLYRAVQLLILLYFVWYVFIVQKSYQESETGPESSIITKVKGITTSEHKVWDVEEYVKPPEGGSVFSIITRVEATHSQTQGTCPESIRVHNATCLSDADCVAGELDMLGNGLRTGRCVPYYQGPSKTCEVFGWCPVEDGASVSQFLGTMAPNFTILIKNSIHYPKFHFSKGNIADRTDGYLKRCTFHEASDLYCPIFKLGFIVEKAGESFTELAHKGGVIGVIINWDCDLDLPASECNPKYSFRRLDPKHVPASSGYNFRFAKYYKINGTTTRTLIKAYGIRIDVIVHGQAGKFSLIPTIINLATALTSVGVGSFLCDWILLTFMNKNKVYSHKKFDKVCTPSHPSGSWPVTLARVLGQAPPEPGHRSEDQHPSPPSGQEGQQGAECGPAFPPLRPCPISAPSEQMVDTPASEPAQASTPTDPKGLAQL
Nature of the experiment: P2X2/3 FLIPR (Fluorometric Imaging Plate Reader) assay. The class given is cell-based. To be noted: CHO-K1 cells transfected with human P2X2/3; agonist α,β-meATP 5 μM; read-out: pIC50 for the P2X2/3 receptor (converted). The protocol: (§1) CHO-K1 cells were transfected with cloned rat P2X3 or human P2X2/3 receptor subunits and passaged in flasks. 18-24 hours before the FLIPR experiment, cells were released from their flasks, centrifuged, and resuspended in nutrient medium at 2.5×10^5 cells/ml. The cells were aliquoted into black-walled 96-well plates at a density of 50,000 cells/well and incubated overnight in 5% CO2 at 37° C. On the day of the experiment, cells were washed in FLIPR buffer (calcium- and magnesium-free Hank's balanced salt solution, 10 mM HEPES, 2 mM CaCl2, 2.5 mM probenecid; FB). Each well received 100 μl FB and 100 μl of the fluorescent dye Fluo-3 AM [2 μM final conc.]. […]
(§2) Test compounds (dissolved in DMSO at 10 mM and serially diluted with FB) or vehicle were added to each well (25 μl of a 4× solution) and allowed to equilibrate for 20 minutes at room temperature. The plates were then placed in the FLIPR and a baseline fluorescence measurement (excitation at 488 nm and emission at 510-570 nm) was obtained for 10 seconds before a 100 μl/well agonist or vehicle addition. […] Fluorescence was measured for an additional 2 minutes at 1 second intervals after agonist addition. A final addition of ionomycin (5 μM, final concentration) was made to each well of the FLIPR test plate to establish cell viability and maximum fluorescence of dye-bound cytosolic calcium. […]

Another experiment deals with T2, rat P2X3 receptor (Rattus norvegicus, UniProt P49654).
T2 construct: expressed in transfected cells; host or cells: CHO-K1
T2 sequence (P49654 1-397): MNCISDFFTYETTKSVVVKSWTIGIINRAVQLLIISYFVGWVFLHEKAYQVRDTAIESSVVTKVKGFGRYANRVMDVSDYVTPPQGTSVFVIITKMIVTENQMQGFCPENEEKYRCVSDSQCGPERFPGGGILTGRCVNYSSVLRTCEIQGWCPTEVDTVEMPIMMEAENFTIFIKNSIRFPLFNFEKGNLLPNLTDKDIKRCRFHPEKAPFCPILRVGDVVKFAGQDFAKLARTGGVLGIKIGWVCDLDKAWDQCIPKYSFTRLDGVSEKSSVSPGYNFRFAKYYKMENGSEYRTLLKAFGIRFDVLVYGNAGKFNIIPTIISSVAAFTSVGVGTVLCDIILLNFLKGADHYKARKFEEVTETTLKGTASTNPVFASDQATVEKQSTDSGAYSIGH
Nature of the experiment: P2X3 FLIPR (Fluorometric Imaging Plate Reader) assay. The note with it: CHO-K1 cells transfected with rat P2X3; agonist α,β-meATP 1 μM; read-out: pIC50 for the P2X3 receptor (converted). The experiment is classed as cell-based. On the procedure:
as §1, §2

`COc1cc(C(C)C)c(Oc2cnc(NC(=O)C(C)C)nc2N)cc1I` [Compound 10, N-[4-Amino-5-(5-iodo-2-isopropyl-4-methoxy-phenoxy)-pyrimidin-2-yl]-isobutyramide]: the IC50 at human P2X2/3 receptor was about 39.8 nM; on rat P2X3 receptor, about 15.8 nM.
